From US11548885B2, “NLRX1 ligands” (Landos Biopharma, Inc., priority 2020, dated 2023)

What was measured:
CD4+ T cells = experiment: Immunological screening in vitro in CD4+ T cells (flow cytometry of TNFα+ and IFNγ+ cells); format: cell-based, C57BL/6 mice; settings: 50 nanomolar, 24 h; for production of TNFα / TNF+ CD4+ T cells: anti-CD3/CD28, PMA and ionomycin last 6 h
From the text: Cell culture. Spleens were excised from C57BL/6 mice. Spleens were crushed between the frosted ends of microscope slides and filtered to provide a cellular suspension. Red blood cells were lysed through hypotonic lysis. Remaining cells were washed and filtered. CD4+ T cells were enriched within the suspension using magnetic sorting based negative selection. Cells were collected and plated within 96 well plates coated with anti-CD3/CD28 and cultured in the presence of NX-64-2, NX-64-3, NX-64-4, NX-64-5, or NX-64-9 at 0 or 50 nanomolar for 24 h. During the last 6 h of culture, cells were stimulated with phorbol 12-myristate-13-acetate (PMA) and ionomycin.
Immunological analysis. Cells were collected from 96 well plates and stained with a cocktail of antibodies for immunophenotyping by flow cytometry. Culture supernatant was collected and assayed for cytokine concentrations by cytometric bead array. Data was captured on a BD FACS Celesta and analyzed using FACSDiva.

mice challenged with DSS = experiment: DSS model of colitis (acute model of IBD); format: in vivo; settings: oral 20 mg/kg once daily
Procedure: DSS model. Mice were given DSS in drinking water for seven days to induce disruption of the epithelial layer. At project initiation, mice were 8 weeks of age and began dosing 24 hours after being placed on DSS. Mice were weighed and scored daily for symptoms of disease (diarrhea, rectal bleeding, rectal inflammation, overall behavior). NX-64-3 was prepared within a 0.5% methylcellulose (12-15 cP) solution. Dosage used was 20 mg/kg delivered once daily. Dosage was calculated based off mean body weights for each gender. Oral dosage was delivered by orogastric gavage of dosage in 0.2 mL volume. Flow Cytometry. Colons were collected into RPMI/FBS buffer containing collagenase (300 U/mL) and DNase (50 U/mL) for digestion. Tissues were digested for 60 minutes under stirring at 37° C. Resultant cellular suspensions were filtered through 100 μm strainers, centrifuged (300×g, 8 min), and washed in fresh RPMI. Following filtration of the resulting single cell suspensions, immune cells were purified by Percoll gradient of cell-containing 40% Percoll overlayed onto 70% Percoll solution. After centrifugation, interphase was collected and washed to obtain enriched colonic lamina propria cell fractions. Cells were labeled with mixtures of extracellular (CD45, CD3, CD4, CD8, CD19, NK1.1, F4/80, CD11b, Gr1) antibodies in a sequential live staining in 96-well plates. […]

[1] = tested on: mice challenged with MOG emulsion; experiment: MOG35-55 induced experimental autoimmune encephalomyelitis model; format: in vivo, C57BL6 mice; settings: oral 20 mg/kg daily
OVA-induced model = OVA-induced model of experimental asthma; format: in vivo, C57BL6 mice; settings: oral 20 mg/kg daily days 14-17, day 18, flow cytometry
Procedure: OVA-induced model. C57BL6 mice were immunized with 10 μg of ovalbumin (OVA) in aluminum hydroxide gel by intraperitoneal injection on day 0 and 7 of the experiment. Mice were then exposed to OVA (8% w/v) by aerosolization for 25 minutes daily between days 14 and 17. Treatment with NX-64-3 (20 mg/kg) or vehicle control occurred daily between days 14 and 17 by oral gavage. Dosage was calculated based off mean body weights. Immunological analysis. Lungs were collected on day 18. Lung tissue was minced and digested in RPMI supplemented with FBS, HEPES, and calcium chloride containing 300 U/mL collagenase and 50 U/mL DNase for 45 minutes at 37° C. After filtration, red blood cells were lysed. Cells were labeled with mixtures of extracellular (CD45, CD3, CD4, CD8, MHCII, CD11b, CD11c, SiglecF, Ly6C) and intracellular (IL10) antibodies in a sequential live staining in 96-well plates in preparation for flow cytometry. Data was captured on a BD FACS Celesta and analyzed using FACSDiva.

[2] = day 18, RNA normalized to beta-actin

O=c1nc(Cc2nc(C3=CCCCO3)no2)[nH]c2ccc(-c3ccc(O)nc3)cc12 [NX-64-3, 2-((3-(3,4-dihydro-2H-pyran-6-yl)-1,2,4-oxadiazol-5-yl)methyl)-6-(6-hydroxypyridin-3-yl)quinazolin-4(1H)-one]
production of TNFα / TNF+ CD4+ T cells (CD4+ T cells): significant reduction | production of IFNγ / IFNγ+ CD4+ T cells, in words (CD4+ T cells; relative to vehicle control): greatest magnitude of response | severity of macroscopic lesions (colon) (mice challenged with DSS; 7 days of DSS): decreased | presence of neutrophils in the colonic lamina propria (mice challenged with DSS; day 7, flow cytometry): decreased | recovery from neurological deficiencies [1]: accelerated | expression of II1b in spinal cord [1, 2]: reduced | expression of Tnf in spinal cord [1, 2]: reduced | disease activity index ([1]; scored 0-4 daily): reduced | percentage of IL10+CD4+ T cells within the lung (OVA-induced model): increased | percentage of eosinophils within the lung (OVA-induced model): reduced

Cn1cc(-c2ccc3[nH]c(Cc4nc(C5=CCCCO5)no4)nc(=O)c3c2)cn1 [NX-64-4, 2-((3-(3,4-dihydro-2H-pyran-6-yl)-1,2,4-oxadiazol-5-yl)methyl)-6-(1-methyl-1H-pyrazol-4-yl)quinazolin-4(1H)-one]
production of TNFα / TNF+ CD4+ T cells (CD4+ T cells): significant reduction

Cn1cc(-c2ccc3[nH]c(Cc4nc(-c5cc(=O)cc[nH]5)no4)nc(=O)c3c2)cn1 [NX-64-9, 2-((3-(4-oxo-1H-pyridin-2-yl)-1,2,4-oxadiazol-5-yl)methyl)-6-(1-methyl-1H-pyrazol-4-yl)quinazolin-4(1H)-one]
production of TNFα / TNF+ CD4+ T cells (CD4+ T cells): significant reduction
